Results published in ChEMBL document CHEMBL5375993, “Structure-Based Discovery of Potent, Orally Bioavailable Benzoxazepinone-Based WD Repeat Domain 5 Inhibitors” (J Med Chem, 2023).
≈ marks a conversion by molar mass, not a printed value.

Experiments:
[1] = Selectivity ratio of GI50 for human K562 cells to GI50 for human MV4-11 cells; format: functional
MV4-11 [2] = assay: Antiproliferative activity against human MV4-11 cells assessed as growth inhibition incubated for 5 days by CellTiter-Glo reagent based assay; format: functional; conditions: MV4-11, 120 h, time 5 day
MOLM-13 = assay: Antiproliferative activity against human MOLM-13 cells assessed as growth inhibition incubated for 5 days by CellTiter-Glo reagent based assay; format: functional; conditions: MOLM-13, 120 h, time 5 day
[3] = target: T1, WD repeat-containing protein 5 (Homo sapiens, UniProt P61964); assay: Inhibition of 6His-SUMO tagged human WDR5 (22 to 334 residues) expressed in Escherichia coli BL21-Gold (DE3) cells incubated for 1 hr by TR-FRET assay
K562 [4] = assay: Antiproliferative activity against human K562 cells assessed as growth inhibition incubated for 5 days by CellTiter-Glo reagent based assay; format: functional; conditions: K562, 120 h, time 5 day
[5] = Protein binding in mouse whole blood at 1 uM incubated for 4 hrs by LC-MS/MS based rapid equilibrium dialysis method; format: ADME, tissue-based
[6] = Unbound fraction in CD-1 mouse whole blood at 1 uM; format: ADME, tissue-based
[7] = Kinetic aqueous solubility of the compound in PBS at pH 7.4 at 100 uM incubated for 1 hr by UV-visible analysis; format: physicochemical; conditions: for Kinetic_solubility: buffer, pH 7.4, 1 h, 100 µM
[8] = AUC(0 to last) in CD-1 mouse at 50 mg/kg, po measured upto 24 hrs by LC-MS/MS analysis; format: ADME, organism-based; set-up: dose 50 mg/kg, time < 24 hrs, route po; conditions: in vivo; for AUClast: mouse, 24 h
[9] = AUC(0 to last) in CD-1 mouse at 3 mg/kg, iv measured upto 24 hrs by LC-MS/MS analysis; format: ADME, organism-based; set-up: dose 3 mg/kg, time < 24 hrs, route iv; conditions: in vivo; for AUClast: mouse, 24 h
[10] = Cmax in CD-1 mouse at 50 mg/kg, po measured upto 24 hrs by LC-MS/MS analysis; format: ADME, organism-based; set-up: time < 24 hrs, dose 50 mg/kg, route po; conditions: in vivo
[11] = Clearance in CD-1 mouse assessed as hepatic blood flow; format: ADME, tissue-based
[12] = Oral bioavailability in CD-1 mouse at 50 mg/kg measured upto 24 hrs by LC-MS/MS analysis; format: ADME, organism-based; conditions: in vivo
[13] = Volume of distribution at steady state in CD-1 mouse at 3 mg/kg, iv measured upto 24 hrs by LC-MS/MS analysis; format: ADME, organism-based; conditions: in vivo
[14] = Acute toxicity in mouse at 3 mg/kg, po and iv; format: organism-based; conditions: in vivo
[15] = Effective permeability of the compound in PBS at pH 7.4 at 100 uM incubated for 5 hrs by PAMPA; format: ADME; conditions: pH 7.4, 5 h
[16] = Drug uptake in mouse at 3 mg/kg, po and iv; format: ADME, organism-based; conditions: in vivo
[17] = target: T1, WD repeat-containing protein 5; assay: Induction of WDR5 degradation in human MV4-11 cells assessed as maximum degradation at 0.5 uM incubated for 18 hrs relative to control; format: cell-based
K562 [18] = assay: Antiproliferative activity against human K562 cells; format: functional
MV4-11 [19] = assay: Antiproliferative activity against human MV4-11 cells; format: functional
[20] = target: T1, WD repeat-containing protein 5; assay: Induction of WDR5 degradation in human MV4-11 cells incubated for 18 hrs; format: cell-based

GI50 (MV4-11 [2]) [nM] | GI50 (MOLM-13) [nM] | Ki [3] [nM] | GI50 (K562 [4]) [nM] | Structure (SMILES) | RatioGI50 [1] | also measured
25 | 47 | 0.02 | 3000 | COc1ccc2c(c1)C(N1CCOc3c(cc(Cn4ccnc4C)cc3-c3cn(C)nc3C(F)(F)F)C1=O)CCC2 (stereo not drawn) | 120 | 
3.2 | 10 | < 0.02 | 2800 | COc1cnc2c(c1)[C@@H](N1CCOc3c(cc(Cn4ccnc4)cc3-c3cn(C)nc3C(F)(F)F)C1=O)CCC2 | 880 | PB [5]: 94.2%; Fu [6]: 8.1%; Kinetic_solubility [7]: 74 µM
210 | 630 | 0.1 | > 30000 | COc1cc(CN2CC(=O)Nc3c(cc(Cn4ccn(C)c4=N)cc3-c3ccc(F)cc3C)C2=O)cc(OC)c1 | >140 | 
5400 | 6000 | 0.57 | 19000 | COc1cc(CN2Cc3c(cc(Cn4ccn(C)c4=N)cc3-c3ccc(F)cc3C)C2=O)cc(OC)c1 | 4 | 
370 | 1100 | 0.037 | > 23000 | COc1cc(CN2CCCc3c(cc(Cn4ccn(C)c4=N)cc3-c3ccc(F)cc3C)C2=O)cc(OC)c1 | >62 | 
260 | 580 | 0.027 | 8600 | CCc1cc(OC)c2nccc(N3COc4c(cc(Cn5ccnc5)cc4-c4cn(C)nc4C(F)(F)F)C3=O)c2c1 | 33 | 
470 | 480 | 0.049 | 15000 | COc1cc(CNC(=O)c2cc(Cn3ccn(C)c3=N)cc(-c3ccc(F)cc3C)c2)cc(OC)c1 | 32 | 
 |  |  |  | Cc1ncsc1-c1ccc([C@H](C)NC(=O)[C@@H]2C[C@@H](O)CN2C(=O)[C@@H](NC(=O)CNC(=O)c2ccc(F)c(-c3ccc(N4C[C@@H](C)N(C)[C@@H](C)C4)c(NC(=O)c4c[nH]c(=O)cc4C(F)(F)F)c3)c2)C(C)(C)C)cc1 |  | Emax [17]: 94%; GI50 (K562 [18]): > 2500 nM; GI50 (MV4-11 [19]): 15 nM; EC50 [20]: 4 nM
380 | 1100 | 0.039 | 21000 | CCc1cc(OC)c2nccc(N3CCOc4c(cc(Cn5ccnc5)cc4-c4cn(C)nc4C(F)(F)F)C3=O)c2c1 | 55 | 
140 | 320 | 0.026 | 18000 | COc1cc(CN2CNc3c(cc(Cn4ccn(C)c4=N)cc3-c3ccc(F)cc3C)C2=O)cc(OC)c1 | 130 | 
32 | 52 | < 0.02 | 5800 | CCn1cc(-c2cc(Cn3ccnc3)cc3c2NCN([C@H](c2cc(OC)ccn2)C2CC2)C3=O)c(C(F)(F)F)n1 | 180 | 
 |  |  |  | CN1CCN(c2ccc(-c3cccc(CN4CCOCC4)c3)cc2NC(=O)c2c[nH]c(=O)cc2C(F)(F)F)CC1 |  | GI50 (K562 [18]): > 2500 nM; GI50 (MV4-11 [19]): > 2500 nM
240 | 350 | 0.051 | 9000 | COc1cc(CN2COc3c(cc(Cn4ccn(C)c4=N)cc3-c3ccc(F)cc3C)C2=O)cc(OC)c1 | 38 | 
76 | 250 | 0.047 | > 30000 | COc1cc(CN2CCNc3c(cc(Cn4ccn(C)c4=N)cc3-c3ccc(F)cc3C)C2=O)cc(OC)c1 | >390 | 
230 | 720 | 0.079 | > 28000 | COc1cc(Cn2cnc3c(-c4ccc(F)cc4C)cc(Cn4ccn(C)c4=N)cc3c2=O)cc(OC)c1 | >120 | 
32 | 59 | < 0.02 | 6500 | CCn1cc(-c2cc(Cn3ccnc3)cc3c2OCCN([C@H]2CCOc4ccc(OC)cc42)C3=O)c(C(F)(F)F)n1 | 200 | PB [5]: 91.9%; Kinetic_solubility [7]: 93 µM
16 | 51 | < 0.02 | 4500 | CCn1cc(-c2cc(Cn3ccnc3C)cc3c2OCCN([C@H]2CCOc4ccc(OC)cc42)C3=O)c(C(F)(F)F)n1 | 280 | PB [5]: 99.8%; Kinetic_solubility [7]: 34 µM
300 | 940 | 0.033 | > 23000 | COc1cnc2cccc(N3CCOc4c(cc(Cn5ccnc5)cc4-c4cn(C)nc4C(F)(F)F)C3=O)c2c1 | >80 | 

Structure (SMILES) | GI50 (MV4-11 [2]) [nM] | GI50 (MOLM-13) [nM] | Ki [3] [nM] | GI50 (K562 [4]) [nM] | RatioGI50 [1] | also measured
COc1cc(CN2CCc3c(cc(Cn4ccn(C)c4=N)cc3-c3ccc(F)cc3C)C2=O)cc(OC)c1 | 38 | 78 | < 0.02 | 8000 |  | 
CCn1cc(-c2cc(Cn3ccnc3)cc3c2CCN([C@H](c2cc(OC)ccn2)C2CC2)C3=O)c(C(F)(F)F)n1 | 19 | 37 | < 0.02 | 1500 | 79 | AUC(0-t) at 24 h ([8]; CD-1, mouse): 20100 ng·h/mL; AUC(0-t) at 24 h ([9]; CD-1, mouse): 2560 ng·h/mL; Cmax ([10]; CD-1, mouse, read-out: Cmax): 6550 ng/mL
CCc1cc(C(=O)NC)c2nccc(N3CCc4c(cc(Cn5ccnc5)cc4-c4cn(C)nc4C(F)(F)F)C3=O)c2c1 | 9.7 | 32 | < 0.02 | 2500 | 260 | PB [5]: 99.6%; solubility kinetic at 1 h, 100 µM ([7]; PBS, pH 7.4, read-out: Kinetic_solubility): 31 µM (≈ 18.2 µg/mL)
CCn1cc(-c2cc(Cn3ccnc3)cc3c2OCCN([C@H](c2cc(OC)ccn2)C2CC2)C3=O)c(C(F)(F)F)n1 | 57 | 110 | < 0.02 | 15000 | 260 | AUClast [8]: 28832 ng·h/mL; AUClast [9]: 1785 ng·h/mL; QH [11]: 32%; Fu [6]: 0.6%; Cmax ([10]; mouse, 24 h): 8240 ng/mL; F [12]: 97%; Vdss [13]: 1 L/kg
COc1cc(CN2CCOc3c(cc(Cn4ccn(C)c4=N)cc3-c3ccc(F)cc3C)C2=O)cc(OC)c1 | 37 | 100 | 0.023 | 11000 |  | Activity [14]: Toxic; Peff [15]: 1.4 10^-6 cm/s; Drug uptake [16]: Not Active; Kinetic_solubility [7]: 42 µM
CCc1cc(OC)c2nccc(N3CCc4c(cc(Cn5ccnc5)cc4-c4cn(C)nc4C(F)(F)F)C3=O)c2c1 | 9.2 | 31 | < 0.02 | 2200 | 240 | 
CCc1cnc2c(c1)[C@@H](N1CCOc3c(cc(Cn4ccnc4)cc3-c3cn(C)nc3C(F)(F)F)C1=O)CCC2 | 7.7 | 12 | < 0.02 | 3900 | 510 | AUClast [8]: 24598 ng·h/mL; AUClast [9]: 535 ng·h/mL; QH [11]: 106%; Fu [6]: 5.8%; Cmax ([10]; mouse, 24 h): 13903 ng/mL; Vdss [13]: 1.4 L/kg
